Results: PubChem BioAssay (NCI)
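The compound was tested at five concentrations on cells cultured in 96-well plates, with a 48-hour exposure period. TGI is the concentration that stops growth completely.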

Columns and labels:
Assay in all cases: NCI-60 cell line screen, 48 h
SK-MEL-28 melanoma = test system: SK-MEL-28 melanoma
SNB-78 CNS = test system: SNB-78 CNS
UACC-62 melanoma = test system: UACC-62 melanoma
TK-10 renal = test system: TK-10 renal
M19-MEL melanoma = test system: M19-MEL melanoma
NCI-H226 lung = test system: NCI-H226 lung
ACHN renal = test system: ACHN renal
DMS 273 small cell lung = test system: DMS 273 small cell lung
SR leukemia = test system: SR leukemia
CAKI-1 renal = test system: CAKI-1 renal
OVCAR-4 ovarian = test system: OVCAR-4 ovarian
SF-268 CNS = test system: SF-268 CNS
NCI-H522 lung = test system: NCI-H522 lung
786-0 renal = test system: 786-0 renal
HL-60(TB) leukemia = test system: HL-60(TB) leukemia
DMS 114 small cell lung = test system: DMS 114 small cell lung
EKVX NSCLC = test system: EKVX NSCLC
HT29 colon = test system: HT29 colon
UO-31 renal = test system: UO-31 renal
SK-MEL-5 melanoma = test system: SK-MEL-5 melanoma
RPMI-8226 leukemia = test system: RPMI-8226 leukemia
SK-MEL-2 melanoma = test system: SK-MEL-2 melanoma
MALME-3M melanoma = test system: MALME-3M melanoma
SN12C renal = test system: SN12C renal
OVCAR-5 ovarian = test system: OVCAR-5 ovarian
HCT-116 colon = test system: HCT-116 colon
HCC-2998 colon = test system: HCC-2998 colon
KM20L2 colon = test system: KM20L2 colon
SW-620 colon = test system: SW-620 colon
M14 melanoma = test system: M14 melanoma
LXFL 529 NSCLC = test system: LXFL 529 NSCLC
SF-539 CNS = test system: SF-539 CNS
HOP-62 NSCLC = test system: HOP-62 NSCLC
SNB-75 CNS = test system: SNB-75 CNS
NCI-H460 lung = test system: NCI-H460 lung
COLO 205 colon = test system: COLO 205 colon
OVCAR-8 ovarian = test system: OVCAR-8 ovarian
SNB-19 CNS = test system: SNB-19 CNS
HOP-18 NSCLC = test system: HOP-18 NSCLC
U251 CNS = test system: U251 CNS
LOX IMVI melanoma = test system: LOX IMVI melanoma
MOLT-4 leukemia = test system: MOLT-4 leukemia
UACC-257 melanoma = test system: UACC-257 melanoma
CCRF-CEM leukemia = test system: CCRF-CEM leukemia
A549 NSCLC = test system: A549 NSCLC
SF-295 CNS = test system: SF-295 CNS
OVCAR-3 ovarian = test system: OVCAR-3 ovarian
HOP-92 NSCLC = test system: HOP-92 NSCLC
RXF 393 renal = test system: RXF 393 renal
K-562 leukemia = test system: K-562 leukemia
DLD-1 colon = test system: DLD-1 colon
SK-OV-3 ovarian = test system: SK-OV-3 ovarian
KM12 colon = test system: KM12 colon
NCI-H23 lung = test system: NCI-H23 lung
HCT-15 colon = test system: HCT-15 colon
XF 498 CNS = test system: XF 498 CNS
IGROV1 ovarian = test system: IGROV1 ovarian
A498 renal = test system: A498 renal

Q: `N#C/C(=C/c1ccc([N+](=O)[O-])o1)c1ccccc1` was tested. Which TGI (SK-MEL-28 melanoma) did it give?
A: The TGI was greater than 100 µM.

Q: What about the TGI (SNB-78 CNS) of the same molecule?
A: Its TGI is greater than 100 µM.

Q: What about the TGI (UACC-62 melanoma) of the same molecule?
A: The TGI was greater than 100 µM.

Q: And the TGI (TK-10 renal)?
A: The TGI was greater than 100 µM.

Q: And the TGI (M19-MEL melanoma)?
A: Its TGI is greater than 100 µM.

Q: What about the TGI (NCI-H226 lung) of the same molecule?
A: Its TGI is greater than 100 µM.

Q: What about the TGI (ACHN renal) of the same molecule?
A: The TGI was greater than 100 µM.

Q: And the TGI (DMS 273 small cell lung)?
A: The TGI was greater than 100 µM.

Q: What about the TGI (SR leukemia) of the same molecule?
A: Its TGI is greater than 100 µM.

Q: What about the TGI (CAKI-1 renal) of the same molecule?
A: The TGI was greater than 100 µM.

Q: What about the TGI (OVCAR-4 ovarian) of the same molecule?
A: The TGI was greater than 100 µM.

Q: What about the TGI (SF-268 CNS) of the same molecule?
A: The TGI was greater than 100 µM.

Q: And the TGI (NCI-H522 lung)?
A: Its TGI is greater than 100 µM.

Q: And the TGI (786-0 renal)?
A: Its TGI is greater than 100 µM.

Q: And the TGI (HL-60(TB) leukemia)?
A: Its TGI is greater than 100 µM.

Q: And the TGI (DMS 114 small cell lung)?
A: The TGI was greater than 100 µM.

Q: And the TGI (EKVX NSCLC)?
A: The TGI was greater than 100 µM.

Q: What about the TGI (HT29 colon) of the same molecule?
A: The TGI was greater than 100 µM.

Q: What about the TGI (UO-31 renal) of the same molecule?
A: Its TGI is greater than 100 µM.

Q: And the TGI (SK-MEL-5 melanoma)?
A: The TGI was greater than 100 µM.

Q: What about the TGI (RPMI-8226 leukemia) of the same molecule?
A: Its TGI is greater than 100 µM.

Q: What about the TGI (SK-MEL-2 melanoma) of the same molecule?
A: Its TGI is greater than 100 µM.

Q: What about the TGI (MALME-3M melanoma) of the same molecule?
A: Its TGI is greater than 100 µM.

Q: And the TGI (SN12C renal)?
A: Its TGI is greater than 100 µM.

Q: And the TGI (OVCAR-5 ovarian)?
A: Its TGI is greater than 100 µM.

Q: What about the TGI (HCT-116 colon) of the same molecule?
A: The TGI was greater than 100 µM.

Q: What about the TGI (HCC-2998 colon) of the same molecule?
A: Its TGI is greater than 100 µM.

Q: What about the TGI (KM20L2 colon) of the same molecule?
A: Its TGI is greater than 100 µM.

Q: And the TGI (SW-620 colon)?
A: Its TGI is greater than 100 µM.

Q: What about the TGI (M14 melanoma) of the same molecule?
A: Its TGI is greater than 100 µM.

Q: And the TGI (LXFL 529 NSCLC)?
A: Its TGI is greater than 100 µM.

Q: What about the TGI (SF-539 CNS) of the same molecule?
A: Its TGI is greater than 100 µM.

Q: And the TGI (HOP-62 NSCLC)?
A: Its TGI is greater than 100 µM.

Q: And the TGI (SNB-75 CNS)?
A: The TGI was greater than 100 µM.

Q: What about the TGI (NCI-H460 lung) of the same molecule?
A: The TGI was greater than 100 µM.

Q: And the TGI (COLO 205 colon)?
A: Its TGI is greater than 100 µM.

Q: And the TGI (OVCAR-8 ovarian)?
A: The TGI was greater than 100 µM.

Q: What about the TGI (SNB-19 CNS) of the same molecule?
A: The TGI was greater than 100 µM.

Q: What about the TGI (HOP-18 NSCLC) of the same molecule?
A: The TGI was greater than 100 µM.

Q: And the TGI (U251 CNS)?
A: The TGI was greater than 100 µM.

Q: What about the TGI (LOX IMVI melanoma) of the same molecule?
A: Its TGI is greater than 100 µM.

Q: What about the TGI (MOLT-4 leukemia) of the same molecule?
A: Its TGI is greater than 100 µM.

Q: And the TGI (UACC-257 melanoma)?
A: Its TGI is greater than 100 µM.

Q: What about the TGI (CCRF-CEM leukemia) of the same molecule?
A: Its TGI is greater than 100 µM.

Q: What about the TGI (A549 NSCLC) of the same molecule?
A: The TGI was greater than 100 µM.

Q: And the TGI (SF-295 CNS)?
A: The TGI was greater than 100 µM.

Q: What about the TGI (OVCAR-3 ovarian) of the same molecule?
A: Its TGI is greater than 100 µM.

Q: What about the TGI (HOP-92 NSCLC) of the same molecule?
A: Its TGI is greater than 100 µM.

Q: What about the TGI (RXF 393 renal) of the same molecule?
A: The TGI was greater than 100 µM.

Q: What about the TGI (K-562 leukemia) of the same molecule?
A: Its TGI is greater than 100 µM.

Q: And the TGI (DLD-1 colon)?
A: The TGI was greater than 100 µM.

Q: What about the TGI (SK-OV-3 ovarian) of the same molecule?
A: The TGI was greater than 100 µM.

Q: And the TGI (KM12 colon)?
A: The TGI was greater than 100 µM.

Q: And the TGI (NCI-H23 lung)?
A: The TGI was greater than 100 µM.

Q: What does the source list for `Cc1nc2ccccc2c(=O)n1/N=C(\N=Nc1cc(Cl)ccc1Cl)c1ccc(N(C)C)cc1`?
A: TGI (SK-MEL-28 melanoma): > 100 µM; TGI (UACC-62 melanoma): > 100 µM; TGI (HCT-15 colon): > 100 µM; TGI (TK-10 renal): > 100 µM; TGI (M19-MEL melanoma): > 100 µM; TGI (ACHN renal): > 100 µM; TGI (DMS 273 small cell lung): > 100 µM; TGI (CAKI-1 renal): 79.8 µM; TGI (SF-268 CNS): > 100 µM; TGI (XF 498 CNS): 8.35 µM; TGI (NCI-H522 lung): 92.3 µM; TGI (786-0 renal): > 100 µM; TGI (IGROV1 ovarian): > 100 µM; TGI (HL-60(TB) leukemia): 56.5 µM; TGI (DMS 114 small cell lung): 93.6 µM; TGI (EKVX NSCLC): > 100 µM; TGI (HT29 colon): > 100 µM; TGI (UO-31 renal): > 100 µM; TGI (SK-MEL-5 melanoma): > 100 µM; TGI (RPMI-8226 leukemia): > 100 µM; TGI (SN12C renal): > 100 µM; TGI (HCT-116 colon): > 100 µM; TGI (KM20L2 colon): > 100 µM; TGI (SW-620 colon): > 100 µM; TGI (LXFL 529 NSCLC): > 100 µM; TGI (SF-539 CNS): > 100 µM; TGI (HOP-62 NSCLC): 83 µM; TGI (NCI-H460 lung): > 100 µM; TGI (COLO 205 colon): > 100 µM; TGI (OVCAR-8 ovarian): > 100 µM; TGI (A498 renal): > 100 µM; TGI (SNB-19 CNS): > 100 µM; TGI (HOP-18 NSCLC): > 100 µM; TGI (U251 CNS): > 100 µM; TGI (LOX IMVI melanoma): > 100 µM; TGI (MOLT-4 leukemia): > 100 µM; TGI (CCRF-CEM leukemia): > 100 µM; TGI (A549 NSCLC): > 100 µM; TGI (RXF 393 renal): 81.8 µM; TGI (K-562 leukemia): > 100 µM; TGI (DLD-1 colon): > 100 µM; TGI (SK-OV-3 ovarian): > 100 µM; TGI (NCI-H23 lung): > 100 µM
